Measurements reported in patent US8415469B2, “Compounds and methods for kinase modulation, and indications therefor” (Plexxikon Inc., priority 2005, dated 2013).

What was measured:
Format in all cases: biochemical
Jnk2 = target: T1, Jnk2 (Homo sapiens, UniProt P45984); experiment: AlphaScreen kinase assay, Jnk2; settings: read-out: IC50, activity toward kinase Jnk2
T1 construct: purchased Roche Protein Expression Group (Indianapolis, IN)
Excerpt: AlphaScreen assay was used to screen additional kinases. The assay is similarly dependent on the phosphorylation of a peptide substrate. In this assay, an antibody that recognizes phosphorylated substrate is bound to an acceptor bead. The peptide substrate is attached to biotin, which binds to a donor head that contains streptavidin. Thus phosphorylated substrate is bound by antibody and streptavidin, bringing the donor and acceptor heads into close proximity when kinase is not inhibited. The donor produces singlet oxygen which results in emission from the acceptor when they are in close proximity. Conversely, when kinase is inhibited, the donor and acceptor beads are not associated and the emission from the acceptor is reduced.
AlphaScreen assays were done using compounds dissolved in DMSO to a concentration of 20 mM. The compounds were diluted accordingly to the desired final concentrations in each sample well, using 1:3 serial dilution for a total of 8 concentration points.

Jnk3 = target: T2, Jnk3 (Homo sapiens, UniProt P53779); experiment: AlphaScreen kinase assay, Jnk3; settings: read-out: IC50, activity toward kinase Jnk3
T2 construct: purchased Upstate Biotechnology
T2 sequence (P53779 whole entry): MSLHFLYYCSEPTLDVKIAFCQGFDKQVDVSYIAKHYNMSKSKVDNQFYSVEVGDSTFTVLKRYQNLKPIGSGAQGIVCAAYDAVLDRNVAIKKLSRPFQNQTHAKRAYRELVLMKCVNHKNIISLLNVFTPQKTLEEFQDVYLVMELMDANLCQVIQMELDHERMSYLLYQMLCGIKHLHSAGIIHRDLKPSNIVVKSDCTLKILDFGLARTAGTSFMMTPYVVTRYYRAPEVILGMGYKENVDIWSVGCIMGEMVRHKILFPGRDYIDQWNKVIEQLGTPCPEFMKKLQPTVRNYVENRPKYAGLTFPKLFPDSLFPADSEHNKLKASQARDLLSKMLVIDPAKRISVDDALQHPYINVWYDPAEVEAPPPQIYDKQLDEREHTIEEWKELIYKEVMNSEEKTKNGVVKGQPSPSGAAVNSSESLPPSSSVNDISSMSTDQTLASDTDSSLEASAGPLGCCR

Fms = target: T3, Fms (Homo sapiens, UniProt P07333); experiment: AlphaScreen kinase assay, Fms; settings: read-out: IC50, activity toward kinase Fms
T3 construct: purchased Upstate Biotechnology
T3 sequence (P07333 20-972): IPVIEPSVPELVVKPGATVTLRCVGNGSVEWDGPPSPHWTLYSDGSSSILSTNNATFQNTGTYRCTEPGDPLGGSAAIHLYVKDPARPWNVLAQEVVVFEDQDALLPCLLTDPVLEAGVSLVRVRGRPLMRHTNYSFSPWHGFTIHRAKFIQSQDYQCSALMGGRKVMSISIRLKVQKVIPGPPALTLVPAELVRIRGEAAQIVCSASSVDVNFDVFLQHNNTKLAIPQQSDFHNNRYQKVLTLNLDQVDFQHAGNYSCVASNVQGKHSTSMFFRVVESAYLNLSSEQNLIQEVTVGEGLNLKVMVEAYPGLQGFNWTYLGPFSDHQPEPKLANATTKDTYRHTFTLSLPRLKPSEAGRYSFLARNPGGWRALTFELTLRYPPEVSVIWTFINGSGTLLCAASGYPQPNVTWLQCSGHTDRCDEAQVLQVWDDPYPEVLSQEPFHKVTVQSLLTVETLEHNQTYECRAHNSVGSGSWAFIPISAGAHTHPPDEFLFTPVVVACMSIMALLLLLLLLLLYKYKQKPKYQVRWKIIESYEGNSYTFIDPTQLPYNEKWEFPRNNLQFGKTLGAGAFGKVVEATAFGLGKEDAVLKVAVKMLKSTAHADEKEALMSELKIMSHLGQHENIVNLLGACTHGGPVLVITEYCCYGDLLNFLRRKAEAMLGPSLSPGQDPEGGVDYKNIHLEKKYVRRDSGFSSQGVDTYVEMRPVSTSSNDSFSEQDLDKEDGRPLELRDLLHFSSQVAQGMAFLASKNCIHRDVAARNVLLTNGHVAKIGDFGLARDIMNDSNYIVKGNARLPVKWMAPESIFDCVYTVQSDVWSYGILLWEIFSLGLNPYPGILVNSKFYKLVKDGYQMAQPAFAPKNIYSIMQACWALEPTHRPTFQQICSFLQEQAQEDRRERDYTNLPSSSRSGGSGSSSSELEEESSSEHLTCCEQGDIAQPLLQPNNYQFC

Jnk1 = target: T4, Jnk1 (Homo sapiens, UniProt P45983); experiment: AlphaScreen kinase assay, Jnk1; settings: read-out: IC50, activity toward kinase Jnk1
T4 construct: purchased Upstate Biotechnology
T4 sequence (P45983 whole entry): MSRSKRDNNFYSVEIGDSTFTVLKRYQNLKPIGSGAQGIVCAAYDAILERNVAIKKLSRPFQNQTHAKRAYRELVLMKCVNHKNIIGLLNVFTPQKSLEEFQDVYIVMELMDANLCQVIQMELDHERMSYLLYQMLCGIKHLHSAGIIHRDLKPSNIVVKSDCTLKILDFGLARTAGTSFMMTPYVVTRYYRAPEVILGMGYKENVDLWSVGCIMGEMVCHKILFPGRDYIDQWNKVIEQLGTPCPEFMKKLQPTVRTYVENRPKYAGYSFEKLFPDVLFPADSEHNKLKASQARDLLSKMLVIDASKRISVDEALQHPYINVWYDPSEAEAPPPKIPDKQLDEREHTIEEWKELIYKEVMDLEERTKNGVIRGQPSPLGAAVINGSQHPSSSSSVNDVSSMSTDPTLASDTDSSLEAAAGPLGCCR

B-Raf V600E = target: T5, B-Raf V600E (Homo sapiens, UniProt P15056, V600E); experiment: AlphaScreen kinase assay, B-Raf V600E; settings: read-out: IC50, activity toward kinase B-Raf V600E
T5 construct: P4254. pFastBacBD-CDC37 BRAF D437-K722-X, V600E; His6 with pFastBac HT leader (TEV site) (N); made in house; host or cells: Sf9 (baculovirus; chaperone CDC37 co-expressed)
T5 sequence (P15056 with tags, fused parts or gaps V600E): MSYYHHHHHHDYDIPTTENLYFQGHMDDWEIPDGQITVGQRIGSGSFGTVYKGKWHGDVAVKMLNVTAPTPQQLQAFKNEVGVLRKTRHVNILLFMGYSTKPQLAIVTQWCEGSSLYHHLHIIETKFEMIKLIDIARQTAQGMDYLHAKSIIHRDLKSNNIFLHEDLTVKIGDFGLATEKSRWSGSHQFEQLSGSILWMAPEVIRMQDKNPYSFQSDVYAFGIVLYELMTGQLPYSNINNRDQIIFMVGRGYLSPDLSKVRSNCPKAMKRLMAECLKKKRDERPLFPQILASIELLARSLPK

B-Raf = target: T6, B-Raf (Homo sapiens, UniProt P15056); experiment: AlphaScreen kinase assay, B-Raf; settings: read-out: IC50, activity toward kinase B-Raf
T6 construct: purchased Upstate Biotechnology
T6 sequence (P15056 whole entry): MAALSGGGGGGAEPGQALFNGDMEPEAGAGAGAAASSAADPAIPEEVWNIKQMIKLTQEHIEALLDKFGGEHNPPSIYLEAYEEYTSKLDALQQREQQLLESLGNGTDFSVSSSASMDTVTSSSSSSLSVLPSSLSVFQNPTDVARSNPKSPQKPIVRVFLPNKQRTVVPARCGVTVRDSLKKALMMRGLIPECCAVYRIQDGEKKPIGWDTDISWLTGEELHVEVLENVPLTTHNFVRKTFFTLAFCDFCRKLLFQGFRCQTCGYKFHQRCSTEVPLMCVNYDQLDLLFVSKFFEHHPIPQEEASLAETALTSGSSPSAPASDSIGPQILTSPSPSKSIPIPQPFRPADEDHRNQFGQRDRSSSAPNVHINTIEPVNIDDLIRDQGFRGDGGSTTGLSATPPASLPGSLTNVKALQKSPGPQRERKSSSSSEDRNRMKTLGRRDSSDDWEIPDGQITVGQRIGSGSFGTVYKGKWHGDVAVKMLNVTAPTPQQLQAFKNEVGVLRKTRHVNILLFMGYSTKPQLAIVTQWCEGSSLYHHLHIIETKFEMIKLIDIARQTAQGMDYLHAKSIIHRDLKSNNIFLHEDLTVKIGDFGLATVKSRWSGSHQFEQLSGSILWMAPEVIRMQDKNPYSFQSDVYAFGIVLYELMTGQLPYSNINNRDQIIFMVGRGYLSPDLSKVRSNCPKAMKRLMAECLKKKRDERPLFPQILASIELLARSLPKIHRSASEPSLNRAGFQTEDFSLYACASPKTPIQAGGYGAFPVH

Ret = target: T7, Ret (Homo sapiens, UniProt P07949); experiment: AlphaScreen kinase assay, Ret; settings: read-out: IC50, activity toward kinase Ret
T7 construct: P1378.pET-SF BI-PTP RET H661-R1012 HIS; made in house
T7 sequence (P07949 with tags, fused parts or gaps): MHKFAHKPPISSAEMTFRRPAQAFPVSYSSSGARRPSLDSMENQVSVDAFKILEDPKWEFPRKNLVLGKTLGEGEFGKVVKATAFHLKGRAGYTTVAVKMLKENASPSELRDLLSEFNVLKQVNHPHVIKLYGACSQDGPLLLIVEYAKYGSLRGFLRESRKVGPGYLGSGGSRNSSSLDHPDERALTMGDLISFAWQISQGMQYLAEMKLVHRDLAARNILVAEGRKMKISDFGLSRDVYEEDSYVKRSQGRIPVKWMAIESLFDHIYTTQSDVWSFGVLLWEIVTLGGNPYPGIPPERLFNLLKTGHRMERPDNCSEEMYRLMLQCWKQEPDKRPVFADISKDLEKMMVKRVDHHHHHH

c-Raf-1 = target: T8, c-Raf-1 (Homo sapiens, UniProt P04049); experiment: AlphaScreen kinase assay, c-Raf-1; settings: read-out: IC50, activity toward kinase c-Raf-1
T8 construct: purchased Upstate Biotechnology
T8 sequence (P04049 whole entry): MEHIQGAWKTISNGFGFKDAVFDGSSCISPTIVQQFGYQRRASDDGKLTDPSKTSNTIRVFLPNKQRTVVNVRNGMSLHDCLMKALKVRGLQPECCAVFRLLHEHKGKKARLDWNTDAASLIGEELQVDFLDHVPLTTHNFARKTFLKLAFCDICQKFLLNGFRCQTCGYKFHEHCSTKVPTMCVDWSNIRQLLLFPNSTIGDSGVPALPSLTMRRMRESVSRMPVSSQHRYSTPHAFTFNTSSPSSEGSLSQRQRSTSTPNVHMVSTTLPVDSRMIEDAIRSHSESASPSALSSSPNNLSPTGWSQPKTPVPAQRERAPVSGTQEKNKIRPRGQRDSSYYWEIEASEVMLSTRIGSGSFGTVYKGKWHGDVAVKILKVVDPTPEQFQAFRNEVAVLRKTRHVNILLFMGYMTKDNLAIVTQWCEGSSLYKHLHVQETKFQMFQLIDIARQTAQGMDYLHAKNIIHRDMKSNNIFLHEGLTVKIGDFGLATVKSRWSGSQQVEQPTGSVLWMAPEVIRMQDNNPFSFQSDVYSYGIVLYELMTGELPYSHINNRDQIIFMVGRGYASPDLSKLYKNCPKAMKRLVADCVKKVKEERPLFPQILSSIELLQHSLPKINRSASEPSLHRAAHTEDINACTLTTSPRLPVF

Kit = target: T9, Kit (Homo sapiens, UniProt P10721); experiment: AlphaScreen kinase assay, Kit; settings: read-out: IC50, activity toward kinase Kit
T9 construct: P1332.N6 BI PTP KIT M552-K948-X COD; His6 (N); made in house; host or cells: E. coli (PTP1B co-expressed)
T9 sequence (P10721 with tags, fused parts or gaps): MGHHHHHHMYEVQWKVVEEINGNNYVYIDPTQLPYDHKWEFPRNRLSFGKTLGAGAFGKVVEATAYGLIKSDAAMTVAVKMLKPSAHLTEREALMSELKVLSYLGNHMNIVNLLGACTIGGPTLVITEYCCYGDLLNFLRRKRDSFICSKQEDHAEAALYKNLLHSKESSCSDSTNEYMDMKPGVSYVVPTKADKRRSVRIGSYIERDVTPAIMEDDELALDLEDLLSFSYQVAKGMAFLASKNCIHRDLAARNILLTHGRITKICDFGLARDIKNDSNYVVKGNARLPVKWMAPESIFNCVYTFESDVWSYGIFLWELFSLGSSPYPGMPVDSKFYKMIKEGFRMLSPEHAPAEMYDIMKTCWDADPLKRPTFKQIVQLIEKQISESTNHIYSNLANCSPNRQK

FGFR1 = target: T10, FGFR1 (Homo sapiens, UniProt P11362, C488A/C584S); experiment: AlphaScreen kinase assay, FGFR1; settings: read-out: IC50, activity toward kinase FGFR
T10 construct: P1351.pET N6 BI-PTP FGFR A458-E765-X C488A, C584S; made in house; host or cells: E. coli (PTP1B co-expressed)
T10 sequence (P11362 458-765 C488A/C584S): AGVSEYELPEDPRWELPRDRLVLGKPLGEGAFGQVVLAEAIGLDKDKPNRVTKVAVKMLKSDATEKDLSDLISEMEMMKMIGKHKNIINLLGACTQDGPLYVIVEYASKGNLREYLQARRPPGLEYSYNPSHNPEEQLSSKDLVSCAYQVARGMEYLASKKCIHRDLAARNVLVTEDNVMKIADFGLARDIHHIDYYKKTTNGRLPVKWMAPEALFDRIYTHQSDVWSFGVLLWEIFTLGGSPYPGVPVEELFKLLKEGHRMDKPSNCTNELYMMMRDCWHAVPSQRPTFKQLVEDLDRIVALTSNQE

Flt1 = target: T11, Flt1 (Homo sapiens, UniProt P17948); experiment: AlphaScreen kinase assay, Flt1; settings: read-out: IC50, activity toward kinase Flt1
T11 construct: P1826.pETN6 BI-PTP FLT1 M799-D1165-X WT; His6 (N); made in house; host or cells: E. coli (PTP1B co-expressed)
T11 sequence (P17948 with tags, fused parts or gaps): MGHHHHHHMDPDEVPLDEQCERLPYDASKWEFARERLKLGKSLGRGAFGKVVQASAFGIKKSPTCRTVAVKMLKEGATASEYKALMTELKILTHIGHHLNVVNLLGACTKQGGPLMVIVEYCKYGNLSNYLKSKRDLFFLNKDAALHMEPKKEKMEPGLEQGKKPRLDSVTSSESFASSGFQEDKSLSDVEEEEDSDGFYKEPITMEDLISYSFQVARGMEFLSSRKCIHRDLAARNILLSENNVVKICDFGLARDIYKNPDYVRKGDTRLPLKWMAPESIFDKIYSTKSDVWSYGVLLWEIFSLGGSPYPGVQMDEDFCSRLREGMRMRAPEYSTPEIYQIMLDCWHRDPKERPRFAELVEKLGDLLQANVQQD

Measured: IC50

T1 sequence (P45984 whole entry): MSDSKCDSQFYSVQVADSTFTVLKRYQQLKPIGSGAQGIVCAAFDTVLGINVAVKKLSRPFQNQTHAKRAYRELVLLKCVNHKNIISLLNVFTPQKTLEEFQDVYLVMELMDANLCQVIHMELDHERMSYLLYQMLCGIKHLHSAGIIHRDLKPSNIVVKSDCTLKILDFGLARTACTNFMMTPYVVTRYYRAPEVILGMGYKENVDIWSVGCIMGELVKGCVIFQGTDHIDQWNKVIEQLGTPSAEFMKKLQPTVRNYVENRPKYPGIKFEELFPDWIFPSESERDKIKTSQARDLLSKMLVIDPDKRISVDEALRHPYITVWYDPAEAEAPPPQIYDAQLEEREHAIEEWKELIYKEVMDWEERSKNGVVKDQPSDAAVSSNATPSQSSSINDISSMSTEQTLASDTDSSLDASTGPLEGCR

CCCCNC(=O)n1ccc2c(C(=O)c3c[nH]c4ncc(Br)cc34)cccc21 [Compound P-1687, 4-(5-Bromo-1H-pyrrolo[2,3-b]pyridine-3-carbonyl)-indole-1-carboxylic acid butylamide]
≤ 10 µM: Jnk2 | Jnk3 | Fms | Jnk1 | B-Raf V600E | B-Raf

O=C(Nc1ccncc1)Nc1cccc(C(=O)c2c[nH]c3ncc(-c4cccnc4)cc23)c1 [Compound P-1777, 1-Pyridin-4-yl-3-[3-(5-pyridin-3-yl-1H-pyrrolo[2,3-b]pyridine-3-carbonyl)-phenyl]-urea]
≤ 10 µM: Jnk2 | Jnk3 | Jnk1 | B-Raf V600E | B-Raf

O=C(Nc1ccc(Cl)cc1)Nc1cccc(C(=O)c2c[nH]c3ncc(-c4cccnc4)cc23)c1 [Compound P-1750, 1-(4-Chloro-phenyl)-3-[3-(5-pyridin-3-yl-1H-pyrrolo[2,3-b]pyridine-3-carbonyl)-phenyl]-urea]
≤ 10 µM: Jnk2 | Jnk3 | Fms | Jnk1 | B-Raf V600E | B-Raf

CCCCNC(=O)Nc1cccc(C(=O)c2c[nH]c3ncc(-c4cccnc4)cc23)c1C [Compound P-1742, 1-Butyl-3-[2-methyl-3-(5-pyridin-3-yl-1H-pyrrolo[2,3-b]pyridine-3-carbonyl)-phenyl]-urea]
≤ 10 µM: Jnk2 | Jnk3 | Fms | Jnk1 | B-Raf V600E | B-Raf

COc1cccc(NC(=O)Nc2cccc(C(=O)c3c[nH]c4ncc(-c5cccnc5)cc34)c2)c1 [Compound P-1749, 1-(3-Methoxy-phenyl)-3-[3-(5-pyridin-3-yl-1H-pyrrolo[2,3-b]pyridine-3-carbonyl)-phenyl]-urea]
≤ 10 µM: Jnk2 | Jnk3 | Fms | Jnk1 | B-Raf V600E | B-Raf

O=C(Nc1cccc(C(=O)c2c[nH]c3ncccc23)c1)Nc1ccon1 [Compound P-1764, 1-Isoxazol-3-yl-3-[3-(1H-pyrrolo[2,3-b]pyridine-3-carbonyl)-phenyl]-urea]
≤ 10 µM: Jnk2 | Jnk3 | Fms | Jnk1 | B-Raf V600E | B-Raf

Cc1cc(NC(=O)Nc2cccc(C(=O)c3c[nH]c4ncccc34)c2)on1 [Compound P-1765, 1-(3-Methyl-isoxazol-5-yl)-3-[3-(1H-pyrrolo[2,3-b]pyridine-3-carbonyl)-phenyl]-urea]
≤ 10 µM: Jnk2 | Jnk3 | Fms | Jnk1 | B-Raf V600E | B-Raf

CCCN(CCC)C(=O)n1ccc2c(C(=O)c3c[nH]c4ncc(-c5cccnc5)cc34)cccc21 [Compound P-1722, 4-(5-Pyridin-3-yl-1H-pyrrolo[2,3-b]pyridine-3-carbonyl)-indole-1-carboxylic acid dipropylamide]
≤ 10 µM: Jnk2 | Jnk3 | Fms | Jnk1 | B-Raf V600E | B-Raf

COc1ccc(NC(=O)Nc2cccc(C(=O)c3c[nH]c4ncc(-c5cccnc5)cc34)c2)cc1 [Compound P-1723, 1-(4-Methoxy-phenyl)-3-[3-(5-pyridin-3-yl-1H-pyrrolo[2,3-b]pyridine-3-carbonyl)-phenyl]-urea]
≤ 10 µM: Jnk2 | Fms | Jnk1 | B-Raf V600E | B-Raf

COc1ccc(NC(=O)Nc2cccc(C(=O)c3c[nH]c4ncc(-c5cccnc5)cc34)c2)cn1 [Compound P-1779, 1-(6-Methoxy-pyridin-3-yl)-3-[3-(5-pyridin-3-yl-1H-pyrrolo[2,3-b]pyridine-3-carbonyl)-phenyl]-urea]
≤ 10 µM: Jnk2 | Fms | Jnk1 | B-Raf V600E | B-Raf

Cc1c(NS(C)(=O)=O)cccc1C(=O)c1c[nH]c2ncc(-c3cccnc3)cc12 [Compound P-0121, N-[2-Methyl-3-(5-pyridin-3-yl-1H-pyrrolo[2,3-b]pyridine-3-carbonyl)-phenyl]-methanesulfonamide]
not listed: Jnk3 | B-Raf | Flt1
≤ 10 µM: all other assays above

CCCCNC(=O)n1ccc2c(C(=O)c3c[nH]c4ncc(-c5ccc(OC)nc5)cc34)cccc21 [Compound P-1827, 4-[5-(6-Methoxy-pyridin-3-yl)-1H-pyrrolo[2,3-b]pyridine-3-carbonyl]-indole-1-carboxylic acid butylamide]
≤ 10 µM: Jnk2 | Jnk3 | Fms | Jnk1 | B-Raf

O=C(c1c[nH]c2ncc(-c3ccccc3)cc12)c1cccc2c1ccn2C(=O)NCc1ccccc1 [Compound P-1611, 4-(5-Phenyl-1H-pyrrolo[2,3-b]pyridine-3-carbonyl)-indole-1-carboxylic acid benzylamide]
≤ 10 µM: Jnk2 | Jnk3 | Fms | Jnk1 | B-Raf V600E

O=C(Nc1ccncc1)Nc1cccc(C(=O)c2c[nH]c3ncccc23)c1 [Compound P-1760, 1-Pyridin-4-yl-3-[3-(1H-pyrrolo[2,3-b]pyridine-3-carbonyl)-phenyl]-urea]
≤ 10 µM: Jnk2 | Fms | Jnk1 | B-Raf V600E | B-Raf

CCCCNC(=O)n1ccc2c(C(=O)c3c[nH]c4ncc(-c5ccc(Cl)cc5)cc34)cccc21 [Compound P-1602, 4-[5-(4-Chloro-phenyl)-1H-pyrrolo[2,3-b]pyridine-3-carbonyl]-indole-1-carboxylic acid butylamide]
≤ 10 µM: Jnk2 | Fms | Jnk1 | Flt1 | B-Raf V600E | B-Raf

Cn1cccc1-c1nc(-c2ccnc3[nH]ccc23)no1 [Compound P-0285]
≤ 10 µM: Jnk2 | Jnk3 | Jnk1

O=C(Nc1cccc(C(=O)c2c[nH]c3ncc(-c4cccnc4)cc23)c1)Nc1ccc(Cl)c(C(F)(F)F)c1 [Compound P-1751, 1-(4-Chloro-3-trifluoromethyl-phenyl)-3-[3-(5-pyridin-3-yl-1H-pyrrolo[2,3-b]pyridine-3-carbonyl)-phenyl]-urea]
≤ 10 µM: Jnk2 | Fms | Jnk1 | B-Raf V600E | B-Raf
